Reference: patent publication US20190255080A1, “METHOD OF REDUCING THYROID-ASSOCIATED SIDE EFFECTS” (Viking Therapeutics, Inc., priority 2016, published 2019)
Entries after “also recorded” stand apart in the source; their conditions may differ.

Experiments:
[1] = test system: patients with primary hypercholesterolemia and non-alcoholic fatty liver disease; experiment: Phase 1b study: LDL-C and triglycerides over 4-week treatment period; type: in vivo, humans; settings: 5 mg daily and up to 40 mg once weekly
Protocol: A phase 1b, randomized, double-blind, placebo-controlled, study is carried out to assess the efficacy, safety, and tolerability of Compound 1, administered for 12 weeks followed by a 4-week off-drug phase, in patients with primary hypercholesterolemia and non-alcoholic fatty liver disease.
(§1) The maximum cumulative weekly dose will not exceed 40 mg in this current clinical study. […] The projected systemic exposure (AUC0-168 hr [i.e., exposure during one week]) of the active metabolite at the 40 mg once weekly dose is 5570 ng*hr/mL. […] Projected exposures in humans receiving 40 mg once weekly is therefore estimated to be about 3-fold lower than exposures at the previously determined 5 mg/kg/day no observable adverse effect level (NOAEL).
Approximately 32 subjects are enrolled and randomly assigned in a 6:2 ratio (Compound 1:placebo) to one of the following treatment groups: (1) 5 mg Compound 1 or Placebo once daily (2) 20 mg Compound 1 or Placebo once weekly (3) 40 mg Compound 1 or Placebo once weekly (4) 10 mg Compound 1 or Placebo every other day The primary endpoint is the percent change in LDL-C from the baseline visit to Day 29. Either a 20% decrease in LDL-C or a lowering of LDL-C to within the normal range is considered clinically meaningful. Subjects are also monitored for adverse effects and/or clinically relevant changes in health status or results from laboratory analyses. […]

[2] = Previously determined no observable adverse effect level (NOAEL) and exposure at it; settings: in vivo
Protocol: as §1

beagle dogs [3] = experiment: Alternative dosing study in dogs: indicators of thyroid function (serum tT4, fT4, tT3, fT3, TSH); type: in vivo
Protocol: (§2) The objective of the study was to determine the effects of oral administration of Compound 2 once-daily for 14 days followed by alternate day dosing for 14 days on plasma cholesterol levels and indicators of thyroid function in beagle dogs. Compound 2 was formulated with Lutrol F68 NF (Poloxomer 188) and carboxymethylcellulose (CMC; sodium salt/high viscosity) and was administered as a suspension in 0.5% CMC/1% Lutrol in deionized water. Twelve beagle dogs (9-15 kg) were randomized into 6 dosing groups (1 male and 1 female/group) and gavaged once-daily with a 0.5% CMC/1% Lutrol F68 suspension of Compound 2 at doses of […] or with vehicle for 14 days. At the end of the treatment cycle (Cycle 1), the dogs were washed out for 4 weeks and then entered into a second 14-day treatment cycle. Cycle 2 employed the same dosing paradigm as Cycle 1, but animals were randomized to Cycle 2 in such a way that the combined dosing groups from the two cycles consisted of 4 different animals (2 males, 2 females) each. At the conclusion of Cycle 2, dosing was continued on alternate days for an additional 14-day period (Cycle 2 Extension). Blood samples were collected at baseline and appropriate time intervals thereafter and analyzed for total plasma cholesterol levels, serum levels of total T4 (tT4), free T4 (fT4), total T3 (tT3), free T3 (fT3), and thyroid stimulating hormone (TSH).

beagle dogs [4] = experiment: Alternative dosing study in dogs: total plasma cholesterol levels; type: in vivo
Protocol: as §2

[5] = alternate day dosing after once-daily treatment
[6] = 0.3 mg/kg/day, once-daily oral, 14 days
[7] = 10 mg/kg/day (highest dose), once-daily oral, 14 days

recovery of TSH levels during Cycle 2 Extension (beagle dogs [3]; [5]) | recovery of fT3 levels during Cycle 2 Extension (beagle dogs [3]; [5]) | TSH levels reduced from baseline on Day 15 (beagle dogs [3]; once-daily treatment, Day 15, non-dose-dependent) | reductions of serum tT4 from baseline levels (beagle dogs [3]; once-daily treatment, dose-dependent, across dose groups) | reductions of fT4 from baseline levels (beagle dogs [3]; once-daily treatment, dose-related, across dose groups) | reductions of fT3 from baseline levels (beagle dogs [3]; once-daily treatment, non-dose-dependent, across dose groups) | SMILES | LDL-C [1] | triglycerides [1] | NOAEL [2] | levels of fT4 during Cycle 2 Extension (beagle dogs [3]; [5]) | levels of tT4 during Cycle 2 Extension (beagle dogs [3]; [5]) | effects on serum TSH levels on Day 8 (beagle dogs [3]; once-daily treatment, Day 8) | changes in tT3 levels relative to baseline levels (beagle dogs [3]; once-daily treatment, compared with vehicle-treated group) | effects on total plasma cholesterol levels (beagle dogs [4]; 0.1 mg/kg/day (lowest dose), once-daily oral) | average reduction of total plasma cholesterol levels on Day 15 (beagle dogs [4]; [6]) | average reduction of total plasma cholesterol levels on Day 15 from baseline (beagle dogs [4]; [6]) | average reduction of total plasma cholesterol levels on Day 15 (beagle dogs [4]; [7]) | average reduction of total plasma cholesterol levels on Day 15 from baseline (beagle dogs [4]; [7]) | total plasma cholesterol levels during alternate day dosing (beagle dogs [4]; Cycle 2 Extension, alternate day dosing for 14 days after 14 days once-daily) | reductions of average total plasma cholesterol levels from baseline (beagle dogs [4]; once-daily oral, 14 days, 0.1-10 mg/kg)
– | – | – | – | – | – | Cc1cc(OCP(=O)(OCOC(=O)C(C)(C)C)OCOC(=O)C(C)(C)C)cc(C)c1Cc1ccc(O)c(Cc2ccccc2)c1 [Compound 1] | dose and/or schedule dependent decreases | dose and/or schedule dependent decreases | 5 mg/kg/day | – | – | – | – | – | – | – | – | – | – | –
more variable recovery | more variable recovery | 6-27% | 20-54% | 8-39% | 15-32% | Cc1cc(OC[P@]2(=O)OC[C@@H](c3cccc(Cl)c3)CO2)cc(C)c1Cc1ccc(O)c(C(C)C)c1 [Compound 2] | – | – | – | gradually recovered to levels that approached those of vehicle-treated animals | gradually recovered to levels that approached those of vehicle-treated animals | variable, with full suppression in some animals and up to 4-fold elevations in others | no meaningful changes; also recorded: unaffected | minimal effects | -28 mg/dL | ~22% | -71 mg/dL | ~47% | remained reduced relative to vehicle-treated animals to a similar or greater extent than observed after once-daily dosing; also recorded: did not compromise cholesterol lowering efficacy | up to 47%
